From patent US20250186467A1, “METHODS OF TREATING MEDICAL CONDITIONS USING STAMPIDINE OR A RELATED COMPOUND” (ROME Therapeutics, Inc., priority 2022, published 2025) come the findings set out here.

The test system of assay [1] is interferon-stimulated gene (ISG) response. The experiment in a line: In vivo decitabine challenge model. To be noted: stampidine 3, 15, 75 mg/kg i.p. daily with decitabine 5 mg/kg i.p., Day 0 to Day 4; spleen, liver, terminal colon. Set-up: species or system C57BL/6 mice. As for the experimental part: Twenty 9-11 week old C57BL/6 mice were acclimated to the lab for at least 5 days. Stampidine was prepared in a 20% HP-b-CD in water solution for i.p. administration. Decitabine (Sigma) was dissolved in sterile PBS (pH 7.4) and dosed within 30 minutes of preparation of the solution. Doses of both stampidine and decitabine were administered i.p. once a day, every day from Day 0 to Day 4.
On Day 0, mice were split into four groups of five mice and given their first dose of decitabine (i.p., 5 mg/kg) and stampidine. Dosing groups were:
Decitabine and stampidine were administered daily from Day 0 to Day 4. All mice were euthanized 1 hour after the last dose administration on Day 4. Spleens, liver, and terminal colon were collected, along with plasma from each animal. The fold changes in interferon-stimulated gene (ISG) expression were calculated by first normalizing to GAPDH gene using the Delta CT method. The CT (gene of interest)−CT (reference gene) was calculated to generate a delta CT for all samples. The fold change was then calculated by taking the […](Delta CT(control)−Delta CT (experimental). The control in this example was the PBS control animal group. The Taqman duplex assay was used to determine levels of GAPDH v. IFIT2.

For assay [2], the system named is phosphorylated TANK-binding kinase 1 (pTBK1). Kind of assay: UVB-induced pTBK1 in HaCaT cells. The conditions noted are these: 96 hours of treatment before UVB, 24 hours post-UVB, ELISA. Format: cell-based. As to the method:
HaCaT cells were plated in 6-well plates at a density of ˜100 k/well in HaCaT media (DMEM, optimized 1× (Addex Bio)+1% pen strep (Gibco)+5% heat inactivated fetal bovine serum (Gibco)). The cells were then cultured at 37° C. overnight. The next day, the cells were treated with the test compounds. Each test compound was diluted and added to media aliquots to provide desired concentrations. To add the test compound+media mixture, an equivalent amount of media from each well was aspirated and then replenished with the media dosed with the test compound. The cells were then cultured for an additional 96 hours with compound treatment prior to UVB exposure.
The media was then aspirated from the wells, with the remaining cells at least 80% confluent in each well. One mL of PBS was then added to each well, and the plate was then placed under a UVB lamp. A UVB sensor was positioned near the plate to register the plate's exposure. The cells were exposed to the UVB light until they reached 0.1 mJ/cm^2. Then the plate was covered and transferred to a sterile hood for processing. […]
A RIPA lysis buffer (#BP-115, Boston Bio-Products) was added to a Halt protease and […] inhibitor cocktail (#78440, ThermoFisher), and the mixture was cooled on ice. […] The protein concentration of the cell lysate was measured using Pierce™ Rapid Gold BCA Protein Assay Kit #AF3225 (ThermoFisher). […]
In general terms: An ELISA detects its analyte on a solid surface through an enzyme-linked reagent.

For `COC(=O)[C@H](C)N[P@](=O)(OC[C@@H]1C=C[C@H](n2cc(C)c(=O)[nH]c2=O)O1)Oc1ccc(Br)cc1` [Stampidine, methyl ((S)-(4-bromophenoxy)(((2S,5R)-5-(5-methyl-2,4-dioxo-3,4-dihydropyrimidin-1(2H)-yl)-2,5-dihydrofuran-2-yl)methoxy)phosphoryl)-L-alaninate], the “change in ISG response” value in assay [1] is given as “showed the change in ISG response which was most prominent in the spleen tissue”. In assay [2], the “reduction of UVB-induced pTBK1” value is given as “showed a reduction of UVB-induced phosphorylated TANK-binding kinase 1 (pTBK1)”.
